Assay results taken from patent publication US20180271863A1, “TARGETING P2 PURINERGIC RECEPTORS TO TREAT HEPATOCELLULAR CARCINOMA (HCC)” (Baylor College of Medicine, priority 2015, published 2018).

Key:
Format in all cases: cell-based, human
[1] = system: Huh7 cells; test: Western blotting of cyclin and CDK proteins in Huh7 cells
Procedure: (§1) Normal human primary hepatocytes isolated from healthy adults (no known history of HCC) in suspension or freshly-frozen prior to shipment (Cryoport Systems, CA) were purchased from Triangle Research Labs, NC. Fresh hepatocytes were plated on collagen-coated tissue culture plates or glass coverslips in Williams E complete media with additives (10% fetal bovine serum, 2 mM glutamine, […] insulin, 4 ng/ml glucagon, […] transferrin, 2.5 ng/ml sodium selenite, 10,000 U/ml penicillin, […] streptomycin, 50 g/ml gentamycin) for 3 h to ensure hepatocyte adherence to plates. Subsequently, hepatocytes were maintained in Williams E minimal media free from serum and growth factors for 24 h prior to treatment. Human hepatocellular carcinoma derived Huh7, and Hep3B, were cultured in Minimum Essential Medium Eagle (MEM); SNU-387 was cultured in Roswell Park Memorial Institute (RPMI) medium and PLC/PRF/5 cultured in Dulbecco's Modified Eagle's medium (DMEM). All maintenance culture media were supplemented with 10% fetal bovine serum (FBS), L-Glutamine (2 mM), penicillin (100 units/ml) and streptomycin ([…]) at 37° C. and 5% CO2. Cells were maintained in serum free media (containing 2 mM L-Glutamine, 100 units/ml penicillin and ([…])) streptomycin for 24 h prior to treatment.
Total protein extracts were obtained by homogenizing cells in total lysis buffer (50 mM Tris-HCl, pH 7.5, 0.5 M NaCl, 2 mM EGTA, 2 mM EDTA, 1.0% Triton X-100, 0.25% Deoxycholate, 1 m/ml pepstatin, 1.0 m/ml leupeptin, 1.0 m/ml aprotinin, 1.0 mM phenylmethylsulfonyl fluoride, 1.0 mM Dithiothreitol, 2.0 mM activated Na3VO4, and 2.0 mM NaF) and centrifuging at 14,000 rpm for 10 min (4° C.). Equal amounts of total proteins as determined by BCA protein Assay (Pierce, Rockford, Ill.) were analyzed by Western blotting. Blots were probed with antibody specific for a-tubulin or GAPDH to ensure equal loading of proteins in each lane.

[2] = system: Huh7 cells; test: qRT-PCR of cyclin mRNA in Huh7 cells
Procedure: Normal human primary hepatocytes isolated from healthy adults (no known history of HCC) in suspension or freshly-frozen prior to shipment (Cryoport Systems, CA) were purchased from Triangle Research Labs, NC. Fresh hepatocytes were plated on collagen-coated tissue culture plates or glass coverslips in Williams E complete media with additives (10% fetal bovine serum, 2 mM glutamine, […] insulin, 4 ng/ml glucagon, […] transferrin, 2.5 ng/ml sodium selenite, 10,000 U/ml penicillin, […] streptomycin, 50 g/ml gentamycin) for 3 h to ensure hepatocyte adherence to plates. Subsequently, hepatocytes were maintained in Williams E minimal media free from serum and growth factors for 24 h prior to treatment. Human hepatocellular carcinoma derived Huh7, and Hep3B, were cultured in Minimum Essential Medium Eagle (MEM); SNU-387 was cultured in Roswell Park Memorial Institute (RPMI) medium and PLC/PRF/5 cultured in Dulbecco's Modified Eagle's medium (DMEM). All maintenance culture media were supplemented with 10% fetal bovine serum (FBS), L-Glutamine (2 mM), penicillin (100 units/ml) and streptomycin ([…]) at 37° C. and 5% CO2. Cells were maintained in serum free media (containing 2 mM L-Glutamine, 100 units/ml penicillin and ([…])) streptomycin for 24 h prior to treatment. Total RNA was isolated from human livers or cells using Trizol Reagent according to manufacturer's instructions (Invitrogen, NY). Complementary DNA (cDNA) synthesis was performed by reverse transcription of total RNA (2 μg) with high capacity cDNA reverse transcription kit (Applied Biosystems, Foster city, CA). The cDNA product was amplified by qRT-PCR in Step One Plus Real-Time PCR system using SYBR Green PCR Master Mix (Applied Biosystems, Grand Island, N.Y.). Quantitative expression values were determined using the […] as specified by manufacturers using GAPDH as a control.

[3] = system: Huh7 cells; test: Western blotting for hippo pathway phosphorylation (Mst1/2, LATS, Yap) in Huh7 cells
Procedure: Total protein extracts were obtained by homogenizing cells in total lysis buffer and analyzed by Western blotting as described recently (Oncotarget 2015; 6:41162-41179). […] Therefore, Applicants performed in vitro studies to test whether activation of P2 purinergic receptors may affect the hippo pathway and its downstream effectors. Huh7 cells—human derived hepatocellular carcinoma cells—maintained in serum free media for 24 hours—were treated with P2 purinergic receptor agonists. […] ADP treatment alone was also sufficient to induce LATs phosphorylation (2 h-1.7 fold, 4 h-1.5 fold) (FIG. 20B). […] Hippo kinases Mst1/2 and Lats1/2 work through a phosphorylation cascade to phosphorylate Yap, thereby retaining Yap in the cytoplasm. In spite of nucleotide-mediated Mst1/2 and Lats phosphorylation, ATP, ADP and ATPγS treatment was individually insufficient to induce Yap phosphorylation. […] Similarly, ATP treatment alone increased nuclear YAP protein expression (1.7 fold) (FIG. 20D).

[4] = system: Huh7 cells; test: qRT-PCR of YAP target genes in Huh7 cells
Text: Total RNA was isolated from human livers or cells and was amplified by qRT-PCR as described recently (Oncotarget 2015; 6:41162-41179). Next, Applicants tested whether extracellular nucleotide treatment may have an effect on YAP target genes important in hepatocellular carcinoma. […] Moreover, P2X3 antagonist (AF-353) pretreatment attenuated ATP mediated induction of survivin (FIG. 20G).

[5] = system: Huh7 cells; test: BrdU incorporation (proliferation) in Huh7 cells; details: nucleotide 100 μM
Procedure: To determine whether P2 purinergic receptor activation influences HCC cell proliferation, BrdU incorporation was assessed in HCC cells maintained in SFM for 24 hours and treated with ATP for 24 hours. ATP treatment alone was sufficient to induce proliferation in each of these cell lines (Huh7, 34%; Hep3B, 46%; SNU-387, 47% and PLC/PRF/5, 24%), identifying nucleotides as liver cancer cell mitogens (FIG. 7A).
Extracellular ATP can be hydrolyzed to ADP and adenosine by ectonucleotidases at the plasma membrane. Therefore, Applicants tested the effects of ATPγS (non-hydrolyzable analog of ATP) or ADP (break down product of ATP) (100 μM) on Huh7 cell proliferation. ATPγS treatment alone was sufficient to induce BrdU incorporation as early as 12 hours (42%); maintained at 18 h (30%) and 24 h (29%) in Huh7 cells (FIG. 8). ADP was also able to independently increase the number of BrdU positive nuclei (12 h, 30%; 18 h, 35%; 24 h, 37%) (FIG. 8). Furthermore, ATP treatment (18 h) increased cell proliferation and viability in all four cell lines, as determined by MTT assay (Huh7, 65%; Hep3B, 81%; SNU-387, 90% and PLC/PRF/5, 43%) (FIG. 7B).
as §1
Formalin-fixed and paraffin embedded liver sections from HCC patients were analyzed by immunohistochemistry with anti-P2X3 antibody (Abcam, Cambridge, Mass.). HCC cells were grown on glass coverslips; BrdU (10 μM, Roche, Indianapolis, Ind.) was added to culture media for 1 h prior to fixation (cold acetone:methanol, 1:1) and stained using anti-BrdU antibody (DAKO, Carpinteria, Calif.) and DAB Peroxidase Substrate Kit (Vector Labs, Burlingame, Calif.), according to manufacturer's instructions. Counterstaining was done with hematoxylin. BrdU positive cells were counted and expressed as a percentage of the total number of cells in ten randomly selected high-power fields (20×) per coverslips.

CSc1nc(N)c2ncn([C@@H]3O[C@H](COP(=O)(O)OP(=O)(O)OP(=O)(O)O)[C@@H](O)[C@H]3O)c2n1 [2-MeSATP]
cyclin D3 expression ([1]; 2MeSATP 50 μM alone, 24 h): 1.9 fold

O=C(O)c1cc(C(=O)O)c(C(=O)N(Cc2cccc(Oc3ccccc3)c2)[C@H]2CCCc3ccccc32)cc1C(=O)O [A317491]
effect on ATP induced cyclin D3 expression ([1]; A317491 30 μM pre-treatment, ATP 24 h): attenuated

Cc1ccc(C(=O)Nc2ccc(S(=O)(=O)O)c3cc(S(=O)(=O)O)cc(S(=O)(=O)O)c23)cc1NC(=O)c1cccc(NC(=O)Nc2cccc(C(=O)Nc3cc(C(=O)Nc4ccc(S(=O)(=O)O)c5cc(S(=O)(=O)O)cc(S(=O)(=O)O)c45)ccc3C)c2)c1 [Suramin]
effect on nucleotide induction of cyclin D3 mRNA ([2]; Suramin pre-treatment (30 minutes) before 24 hours nucleotide treatment): dose dependent attenuation | effect on baseline cyclin D3 expression ([2]; Suramin treatment alone): reduced

O=c1ccn([C@@H]2O[C@H](COP(=O)(O)OP(=O)(O)OP(=O)(O)O)[C@@H](O)[C@H]2O)c(=O)[nH]1 [UTP]
Mst1/2 phosphorylation ([3]; Huh7, serum free 24 hours, as early as 5 minutes, sustained at 4 hours): significantly induced

Cc1nc(N=Nc2ccc(S(=O)(=O)O)cc2S(=O)(=O)O)c(COP(=O)(O)O)c(C=O)c1O [PPADS]
effect on ATPγS-induced AREG and CTGF expression ([4]; ATPγS ± PPADS, 24 h): completely attenuated

Nc1ncnc2c1ncn2[C@@H]1O[C@H](COP(=O)(O)OP(=O)(O)O)[C@@H](O)[C@H]1O [ADP]
BrdU incorporation / BrdU positive nuclei ([5]; 12 h): 30% | BrdU incorporation / BrdU positive nuclei ([5]; 18 h): 35% | BrdU incorporation / BrdU positive nuclei ([5]; 24 h): 37% | Cyclin D3 mRNA expression vs untreated cells ([2]; 12 h treatment): 2.7 fold | Cyclin D3 mRNA expression vs untreated cells ([2]; 36 h treatment): 2.8 fold | AREG gene expression ([4]; 24 h treatment): 2.6 fold | CTGF gene expression ([4]; 24 h treatment): 2.5 fold | Sox9 gene expression ([4]; 24 h treatment): 1.4 fold | cyclin E gene expression ([4]; 24 h treatment): 2.4 fold | survivin gene expression ([4]; 24 h treatment): 1.4 fold | Yap phosphorylation ([3]; Huh7, 12 h treatment): 0.2 fold | induction of Yap phosphorylation ([3]; Huh7, 12 h treatment): insufficient
